For data set [1], the system named is rabbit saphenous vein. The data set is described as follows: Rabbit saphenous vein contraction.
In data set [2] the test system is neuronal protein extravasation. The data set can be described thus: Protein extravasation assay (trigeminal ganglion stimulation). Format: in vivo, rats or guinea pigs. Conditions: intravenous. Here is the method:
Harlan Sprague-Dawley rats (225-325 g) or guinea pigs from Charles River Laboratories (225-325 g) were anesthetized with sodium pentobarbital intraperitoneally (65 mg/kg or 45 mg/kg respectively) and placed in a stereotaxic frame (David Kopf Instruments) with the incisor bar set at −3.5 mm for rats or −4.0 mm for guinea pigs. Following a midline sagital scalp incision, two pairs of bilateral holes were drilled through the skull (6 mm posterially, 2.0 and 4.0 mm laterally in rats; 4 mm posteriorly and 3.2 and 5.2 mm laterally in guinea pigs, all coordinates referenced to bregma). Pairs of stainless steel stimulating electrodes, insulated except at the ends (Rhodes Medical Systems, Inc.), were lowered through the holes in both hemispheres to a depth of 9 mm (rats) or 10.5 mm (guinea pigs) from dura. […]
A fluorescence microscope (Zeiss) equipped with a grating monchromator and a spectrophotometer was used to quantify the amount of Evans Blue dye in each sample. An excitation wavelength of approximately 535 nm was utilized and the emission intensity at 600 nm was determined. […] This facilitated the computer-controlled movement of the stage with fluorescence measurements at 25 points (500 μm steps) on each dural sample. The mean and standard deviation of the measurements were determined by the computer. […]

The structures appear in SMILES notation.

For the compound `CN1CCC(C(=O)c2cccc(NC(=O)c3c(F)cc(F)cc3F)n2)CC1` [Compound I, 2,4,6-trifluoro-N-[6-(1-methyl-piperidin-4-ylcarbonyl)-pyridin-2-yl]-benzamide], the vasoconstrictive activity result in data set [1] is recorded as “not be significantly vasoconstrictive”. Besides, in data set [2], the “inhibition of neuronal protein extravasation” value is “significantly inhibit neuronal protein extravasation”.

The values above are taken from patent US12257246B2, “Composition of 2,4,6-trifluoro-n-[6-(1-methyl-piperidin-4-carbonyl)-pyridin-2-yl[-benzamide” (CoLucid Pharmaceuticals, Inc., priority 2009, dated 2025).
